Columns and labels:
[1] = system: H417 small cell lung cancer cell line (intact RB); experiment: SCLC cell proliferation, WST-1, RB-intact line; type: cell-based; settings: 100 nM
Description: FIG. 8: CDK4/6 inhibition potentiates proliferation of Rb deficient cells. […] Cell proliferation was assessed using WST-1 reagent. Each data point represents the mean of four replicates +/−SEM. CDK4/6 inhibition increases cell proliferation of RB-deficient cell lines.
Primary normal human renal proximal epithelial cells (American Type Culture Collection (ATCC), Manassas, Va., United States of America) were cultured in renal epithelial cell basal media supplemented with renal epithelial cell growth kit according to the manufacturer's recommendations. […] For the γH2AX assay, cells were fixed, permeabilized, and stained with anti-γH2AX as per γH2AX Flow Kit (Millipore, Billerica, Mass., United States of America). γH2AX levels were assessed by flow cytometry. Cell proliferation was assessed by seeding 1×10^3 cells per well in a 96-well tissue culture plate in 100 μL of growth medium. […] At the end of the recovery period, cell number was quantified using CellTiter-Glo® (Promega, Fitchburg, Wis., United States of America) or WST-1 reagent (TaKaRa Bio USA, Madison, Wis., United States of America). Cellular cytotoxicity was assessed using the TOXILIGHT™ Bioassay kit (Lonza, Basel, Switzerland) which measures cytolysis by quantifying the release of Adenylate Kinase into the culture media. […] 100 μL of TOXILIGHT™ reagent is added and incubated for 5 minutes and read in a luminometer at 1 second/well. […]

[2] = system: murine splenic B and T cells; experiment: Splenic lymphocyte proliferation in mice (Ki67 or BrdU staining); type: in vivo, mouse; settings: 24 hours treatment, unstimulated mice
Description: Animals were treated with CDK4/6 inhibitor (PD0332991, open bars) or vehicle (shaded bars) for 24 hours and euthanized. Splenocytes were isolated and stained for B and T cell markers. After gating on appropriate populations, Ki67 staining was performed as an indicator of proliferation and S-phase. Error bars show +/−SEM.
FIG. 22: CDK4/6 inhibitors block B-cell proliferation. Animals were treated with CDK4/6 inhibitor (150 mg/kg by daily oral gavage) or vehicle for 4 days, and BrdU in the drinking water for 3 days. After BrdU treatment, animals were euthanized. Splenocytes were isolated and stained for B cell markers. After gating on appropriate populations, BrdU staining was performed as an indicator of proliferation.
Cohorts of wild type mice were treated with vehicle or a CDK4/6 inhibitor as in FIG. 11. […] Unstimulated mice were treated for 24 hours with PD0332991 and homeostatic B cell proliferation measured by Ki67 staining after appropriate sorting. Similar results were obtained using BrdU incorporation to measure splenic B cell proliferation. Similar experiments were undertaken in human cells with B cell receptor stimulation as described in FIG. 12.

CC(=O)c1c(C)c2cnc(Nc3ccc(N4CCNCC4)cn3)nc2n(C2CCCC2)c1=O [PD0332991, 6-acetyl-8-cyclopentyl-5-methyl-2-(5-piperazin-1-yl-pyridin-2-ylamino)-8H-pyrido-[2,3-d]-pyrimidin-7-one]
cell proliferation (WST-1) vs DMSO [1]: decreased
splenocyte B and T cell proliferation (Ki67 staining) [2]: blocks T and B cell proliferation
